Consider five compounds from ChEMBL document CHEMBL1148263, “Solid-phase synthesis of kojic acid-tripeptides and their tyrosinase inhibitory activity, storage stability, and toxicity” (Bioorg Med Chem Lett, 2004).

Each structure is given as a SMILES string.

One assay is described as follows: Cytotoxicity of compound against Melan-a cells determined as percent cell survival at 10 ppm. The assay is classed as functional, Mus musculus.
In turn, `NCCCC[C@H](NC(=O)OCc1cc(=O)c(O)co1)C(=O)N[C@@H](CCC(=O)O)C(=O)N[C@@H](Cc1ccc(O)cc1)C(=O)O` gave a Cell survival of 98.78%.

`O=C(N[C@@H](Cc1ccccc1)C(=O)N[C@@H](Cc1c[nH]c2ccccc12)C(=O)N[C@@H](Cc1ccc(O)cc1)C(=O)O)OCc1cc(=O)c(O)co1` registered a Cell survival of 128.73%.

With `O=C(N[C@@H](Cc1ccccc1)C(=O)N[C@@H](Cc1ccc(O)cc1)C(=O)N[C@@H](Cc1ccc(O)cc1)C(=O)O)OCc1cc(=O)c(O)co1`, the Cell survival is reported as 128.62%.

In turn, `O=C(N[C@@H](Cc1ccccc1)C(=O)N[C@@H](Cc1ccccc1)C(=O)N[C@@H](Cc1ccc(O)cc1)C(=O)O)OCc1cc(=O)c(O)co1` displayed a Cell survival of 94.66%.

In turn, `O=c1cc(CO)occ1O` [KOJIC ACID] displayed a Cell survival of 92.36%.

A short description of another assay: Cytotoxicity of compound against Melan-a cells determined as percent cell survival at 1 ppm. The assay is classed as functional, Mus musculus.
In turn, `NCCCC[C@H](NC(=O)OCc1cc(=O)c(O)co1)C(=O)N[C@@H](CCC(=O)O)C(=O)N[C@@H](Cc1ccc(O)cc1)C(=O)O` returned a Cell survival of 98.38%.

With `O=C(N[C@@H](Cc1ccccc1)C(=O)N[C@@H](Cc1c[nH]c2ccccc12)C(=O)N[C@@H](Cc1ccc(O)cc1)C(=O)O)OCc1cc(=O)c(O)co1`, the Cell survival was determined as 125.51%.

For the compound `O=C(N[C@@H](Cc1ccccc1)C(=O)N[C@@H](Cc1ccc(O)cc1)C(=O)N[C@@H](Cc1ccc(O)cc1)C(=O)O)OCc1cc(=O)c(O)co1`, the Cell survival came out at 124.4%.

`O=C(N[C@@H](Cc1ccccc1)C(=O)N[C@@H](Cc1ccccc1)C(=O)N[C@@H](Cc1ccc(O)cc1)C(=O)O)OCc1cc(=O)c(O)co1` yielded a Cell survival of 91.62%.

On to `O=c1cc(CO)occ1O` [KOJIC ACID], for which the Cell survival was 91.75%.

A further assay in a line: Cytotoxicity of compound against Melan-a cells determined as percent cell survival at 100 ppm. The assay is classed as functional, Mus musculus.
`NCCCC[C@H](NC(=O)OCc1cc(=O)c(O)co1)C(=O)N[C@@H](CCC(=O)O)C(=O)N[C@@H](Cc1ccc(O)cc1)C(=O)O` had a Cell survival of 100.81%.

On to `O=C(N[C@@H](Cc1ccccc1)C(=O)N[C@@H](Cc1c[nH]c2ccccc12)C(=O)N[C@@H](Cc1ccc(O)cc1)C(=O)O)OCc1cc(=O)c(O)co1`, for which the Cell survival was determined as 128.08%.

Turning to `O=C(N[C@@H](Cc1ccccc1)C(=O)N[C@@H](Cc1ccc(O)cc1)C(=O)N[C@@H](Cc1ccc(O)cc1)C(=O)O)OCc1cc(=O)c(O)co1`, the Cell survival stood at 124.4%.

`O=C(N[C@@H](Cc1ccccc1)C(=O)N[C@@H](Cc1ccccc1)C(=O)N[C@@H](Cc1ccc(O)cc1)C(=O)O)OCc1cc(=O)c(O)co1`: the Cell survival amounted to 104.36%.

`O=c1cc(CO)occ1O` [KOJIC ACID] had a Cell survival of 86.92%.
